Patent US8268809B2, “Kinase inhibitors for preventing or treating pathogen infection and method of use thereof” (priority 2006, dated 2012)

How the values were obtained:
[1] = system: gamma-herpes variant that expresses GFP under a CMV promoter (GHV-Bac-GFP); test: Herpes virus assay: GHV-Bac-GFP infection of 3T3 monolayers, cytopathic effect and GFP spread; format: cell-based, gamma-herpes virus; conditions: for Herpes phenotype group / HERPES: 3T3 cells, GHV-Bac-GFP; for Herpes phenotype group: 10 μM, after 7 days; for HERPES: compound 10 μM, 7 days
Description: All herpes viruses share the property of establishing life-long infection in their host. […] To determine whether tyrosine kinases participate in gamma-herpes virus infections, confluent monolayers of 3T3 cells were exposed and plated in optical 96 well dishes to the library of compounds of the present invention described herein for 1 hour. The cells were then infected with a gamma-herpes variant that expresses GFP under a CMV promoter (GHV-Bac-GFP), and replaced the compounds of the present invention at final concentration of 10 μM.

vaccinia virus [2] = format: cell-based
vaccinia virus [3] = format: cell-based; remark: listed apart in the source
vaccinia virus [4] = conditions: background statement, Reeves et al. 2005; cited from earlier work

| SMILES | Herpes phenotype group [1] | HERPES [1] | VACCINIA Plaque Assay (vaccinia virus [3]) | further results |
| --- | --- | --- | --- | --- |
| CCOC(=O)c1ccc(-c2ccc3c(-c4ccc(F)cc4)n[nH]c3n2)cc1 [APcK-53] | (iii) | DE- LAYED CPE |  |  |
| Cc1ccc(NC(=O)c2ccc(CN3CCN(Cc4ccc(F)cc4)CC3)cc2)cc1Nc1nccc(-c2cccnc2)n1 [STI-F] |  |  | PINPOINT PLAQUES | Actin protein tails (vaccinia virus [2]): few actin tails; Class category of infected monolayers in plaque assay (vaccinia virus [3]): Class III; VACCINIA PLAQUE ASSAY 2 (vaccinia virus [3]): NO PLAQUES |
| CCOC(=O)c1ccc(-c2ccc3c(-c4ccc(C)c(F)c4)n[nH]c3n2)cc1 [APcK-51] | (iii) | DE- LAYED CPE |  |  |
| CC(=O)Nc1cccc(-c2ccc3c(-c4ccc(Br)c(F)c4)n[nH]c3n2)c1 [APcK-43] |  | DE- LAYED CPE | NO PLAQUES | Class category of infected monolayers in plaque assay (vaccinia virus [3]): Class III; Effects in Vaccinia assays (vaccinia virus [3]): had effects; VACCINIA PLAQUE ASSAY 2 (vaccinia virus [3]): NO PLAQUES; Effects in Herpes assay [1]: had effects |
| CC(=O)Nc1cccc(-c2ccc3c(-c4ccc(Cl)c(Cl)c4)n[nH]c3n2)c1 [APcK-42] | (iii) | DE- LAYED CPE |  |  |
| Brc1cnc2c(Nc3ccc(N4CCOCC4)cc3)nccn12 [LG2-77] | (iii) | DE- LAYED CPE |  |  |
| CCOC(=O)c1ccc(-c2ccc3c(-c4ccc(Br)cc4F)n[nH]c3n2)cc1 [APcK-50] | (iii) | DE- LAYED CPE |  |  |
| COc1ccccc1Nc1cc(-c2ccc([N+](=O)[O-])cc2)ncn1 [Eph2_wbz 203] |  |  | SMALL PLAQUES, STILL SEE COMETS | Actin protein tails (vaccinia virus [2]): wild-type actin protein tails; Class category of infected monolayers in plaque assay (vaccinia virus [3]): Class III; Plaque phenotype due to drug treatment (FIGS. 1, 2, 4) (vaccinia virus [3]): small plaques with comets; VACCINIA PLAQUE ASSAY 2 (vaccinia virus [3]): SMALL PLAQUES |
| CC(=O)Nc1cccc(-c2ccc3c(-c4ccc(F)cc4)n[nH]c3n2)c1 [APcK-103] | (iii) | DE- LAYED CPE | NO PLAQUES | Class category of infected monolayers in plaque assay (vaccinia virus [3]): Class III; Effects in Vaccinia assays (vaccinia virus [3]): had effects; VACCINIA PLAQUE ASSAY 2 (vaccinia virus [3]): NO PLAQUES; Effects in Herpes assay [1]: had effects |
| Nc1cccc(-c2ccc3nnc(-c4ccco4)n3n2)c1 [LG2-71] | (ii) | ENTRY OR EGRESS INHIB- ITOR | SMALL PLAQUES, WITH COMETS | Class category of infected monolayers in plaque assay (vaccinia virus [3]): Class III; Effects in Vaccinia assays (vaccinia virus [3]): had effects; Plaque phenotype due to drug treatment (FIGS. 1, 2, 4) (vaccinia virus [3]): small plaques with comets; VACCINIA PLAQUE ASSAY 2 (vaccinia virus [3]): PINPOINTS; Effects in Herpes assay [1]: had effects |
| CC(=O)Nc1ccc(-c2ccc3c(-c4ccc(Br)cc4F)n[nH]c3n2)cc1 [APcK-21] | (iii) | DE- LAYED CPE |  |  |
| O=C(c1ccccc1)c1ccc(-c2ccc3c(-c4ccc(F)cc4)n[nH]c3n2)cc1 [APcK-36] | (iii) | DE- LAYED CPE |  |  |
| Cc1ccc(NC(=O)c2ccc(CN3CCN(C)CC3)cc2)cc1Nc1nccc(-c2cncc(-c3ccncc3)c2)n1 [StiAF3-iAR] | (ii) | ENTRY OR EGRESS INHIB- ITOR |  |  |
| Cc1ccc(NC(=O)c2ccc(CN3CCN(C)CC3)cc2)cc1Nc1nccc(-c2cccnc2)n1 [CGP-2, reference compound] | (ii) | ENTRY OR EGRESS INHIB- ITOR |  | Plaque phenotype of known Abl-/Src-family kinase inhibitors (vaccinia virus [4]): somewhat reduced plaque size and loss of comets |
| Cc1ccc(NC(=O)c2ccc(CN3CCOCC3)cc2)cc1Nc1nccc(-c2cccnc2)n1 [CGP51148 WBZ-4] | (iii) | DE- LAYED CPE |  |  |
| Cc1ccc(NC(=O)c2ccc(CN3CCN(C)CC3)cc2)cc1Nc1nccc(-c2cncc(-c3ccncc3)c2)n1 [WBZ-6] |  | DE- LAYED CPE |  |  |
| COc1ccccc1NS(=O)(=O)c1cccc(Nc2cc(-c3ccc(Cl)cc3)ncn2)c1 [Eph2_wbz 115] |  | DE- LAYED CPE |  |  |
| CC(=O)c1cccc(-c2cnc3c(Nc4ccc(N5CCOCC5)cc4)nccn23)c1 [LG2-81] | (iii) | DE- LAYED CPE |  |  |
| Brc1cnc2c(Nc3ccccc3)nccn12 [LG2-55] | (iii) | DE- LAYED CPE | PINPOINT PLAQUES | Effects in Vaccinia assays (vaccinia virus [3]): had effects; Effects in Herpes assay [1]: had effects |
| CC(=O)Nc1ccc(-c2ccc3c(-c4ccc(Cl)c(Cl)c4)n[nH]c3n2)cc1 [APcK-25] | (iii) | DE- LAYED CPE |  |  |
